Results taken from paper PMC4460250, “Systems Pharmacology Dissecting Holistic Medicine for Treatment of Complex Diseases: An Example Using Cardiocerebrovascular Diseases Treated by TCM” (Evidence-based Complementary and Alternative Medicine : eCAM, 2015).
Like-named read-outs stand apart in the source and are kept apart here.

Assays:
PIM1 = PIM1 (Homo sapiens, UniProt P11309); assay: PIM1 inhibition assay (ligand-binding assay, manufacturer's instructions); assay type: biochemical; details: Bliss method, three independent determinations, read-out: IC50 (μM): mean ± SD
Sequence of PIM1 (P11309 whole entry): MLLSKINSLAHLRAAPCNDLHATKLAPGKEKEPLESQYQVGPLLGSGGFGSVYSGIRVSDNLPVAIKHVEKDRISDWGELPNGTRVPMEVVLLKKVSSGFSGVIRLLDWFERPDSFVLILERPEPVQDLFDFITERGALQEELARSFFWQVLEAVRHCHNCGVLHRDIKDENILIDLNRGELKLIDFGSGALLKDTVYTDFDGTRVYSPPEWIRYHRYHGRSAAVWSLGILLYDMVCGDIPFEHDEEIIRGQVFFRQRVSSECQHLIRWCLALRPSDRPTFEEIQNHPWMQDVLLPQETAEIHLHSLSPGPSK

PTGS1 = target: T1, PTGS1 (Ovis aries, UniProt P05979); assay: PTGS1 inhibition assay (ligand-binding assay, manufacturer's instructions); assay type: biochemical; details: Bliss method, three independent determinations, read-out: IC50 (μM): mean ± SD
T1 sequence (P05979 25-600): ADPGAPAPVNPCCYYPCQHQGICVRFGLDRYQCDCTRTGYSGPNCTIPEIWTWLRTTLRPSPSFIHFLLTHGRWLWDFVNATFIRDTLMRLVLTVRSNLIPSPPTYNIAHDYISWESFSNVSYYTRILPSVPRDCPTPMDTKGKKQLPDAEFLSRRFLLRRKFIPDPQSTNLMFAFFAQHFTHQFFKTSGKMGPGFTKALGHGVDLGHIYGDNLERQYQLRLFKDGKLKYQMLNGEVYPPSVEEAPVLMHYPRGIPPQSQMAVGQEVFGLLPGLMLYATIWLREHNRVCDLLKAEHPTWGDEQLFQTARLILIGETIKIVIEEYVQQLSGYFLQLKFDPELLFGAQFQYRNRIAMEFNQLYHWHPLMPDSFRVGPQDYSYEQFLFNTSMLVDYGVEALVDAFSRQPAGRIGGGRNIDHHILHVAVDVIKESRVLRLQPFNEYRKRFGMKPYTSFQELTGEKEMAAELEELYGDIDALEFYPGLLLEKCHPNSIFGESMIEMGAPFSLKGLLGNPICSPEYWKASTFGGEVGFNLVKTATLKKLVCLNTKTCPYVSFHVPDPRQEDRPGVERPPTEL
Method: To validate the practicability and efficiency of above methods, the inhibitory effects of drugs on predicted targets were quantified by ligand-binding assays according to the manufacturer's instructions. The drug-target interactions were selected at random and readily available on the market, respectively. […] Targets PIM1 and PTGS1 were respectively purchased from Cayman Chemical, Ann Arbor, MI, USA and CycLex, Japan. The purity of all the compounds is >98%. All drugs were dissolved in DMS and freshly prepared due to loss of activity under long-term storage. IC50 values were determined using the Bliss method with three independent determinations.

[1] = cited from earlier work
[2] = Human intestinal absorption percentage values of the PreHIA data set (732 compounds, Table S2); details: class from HIA value
[3] = human, PreHIA data set, value given as fraction

SMILES	IC50 (PIM1) [µM]	IC50 (PTGS1) [µM]	HIA(Human Intestinal Absorption) [1, 3]	Class(High: HIA value ≥0.7; Low: HIA value < 0.7) [2]	HIA(Human Intestinal Absorption) ([1]; in vivo)
O=c1c(O[C@@H]2O[C@H](CO)[C@@H](O)[C@H](O)[C@H]2O)c(-c2ccc(O)cc2)oc2cc(O)cc(O)c12 [Astragalin]	62 ± 9.7	–	–	–	–
O=c1c(O[C@@H]2O[C@H](CO)[C@@H](O)[C@H](O)[C@H]2O)c(-c2ccc(O)cc2)oc2cc(O)cc(O)c12 [Kaempferol-3-glucoside]	–	74	–	–	–
O=C(c1ccc(F)cc1)C1CCN(CCn2c(=O)[nH]c3ccccc3c2=O)CC1 [Ketanserin]	–	–	1	High (High: HIA value ≥0.7)	–
CC(=O)N1CCN(c2ccc(OCC3COC(Cn4ccnc4)(c4ccc(Cl)cc4Cl)O3)cc2)CC1 (stereo not drawn) [Ketoconazole]	–	–	0.75	High (High: HIA value ≥0.7)	–
CN1CCC(=C2c3ccccc3CC(=O)c3sccc32)CC1 [Ketotifen]	–	–	0.9	High (High: HIA value ≥0.7)	–
CCOC(=O)C1=C(C)NC(C)=C(C(=O)OCC)C1c1ccccc1/C=C/C(=O)OC(C)(C)C [Lacidipine]	–	–	0.98	High (High: HIA value ≥0.7)	–
C[C@@H]1CC(=O)NN=C1c1ccc(NN=C(C#N)C#N)cc1 [Levosimendan]	–	–	0.9	High (High: HIA value ≥0.7)	–
CN1C(C(=O)Nc2ccccn2)=C(O)c2sc(Cl)cc2S1(=O)=O [Lornoxicam]	–	–	1	High (High: HIA value ≥0.7)	–
C#C[C@]1(O)CC[C@H]2[C@@H]3CCC4=CCCC[C@@H]4[C@H]3CC[C@@]21C [Lynestrenol]	–	–	1	High (High: HIA value ≥0.7)	–
Cc1ccc(Cl)c(Nc2ccccc2C(=O)O)c1Cl [Meclofenamic_acid]	–	–	1	High (High: HIA value ≥0.7)	–
COc1ccc2cc(CCC(C)=O)ccc2c1 [Nabumetone]	–	–	0.8	High (High: HIA value ≥0.7)	–
CNS(=O)(=O)CCc1ccc2[nH]cc(C3CCN(C)CC3)c2c1 [Naratriptan]	–	–	0.7	High (High: HIA value ≥0.7)	–
O=[N+]([O-])c1ccc(O)c2ncccc12 [Nitroxoline]	–	–	1	High (High: HIA value ≥0.7)	–
CCOC(=O)C1=C[C@@H](OC(CC)CC)[C@H](NC(C)=O)[C@@H](N)C1 [Oseltamivir]	–	–	0.75	High (High: HIA value ≥0.7)	–
O=c1[nH]c2ccccc2n1CCCN1CCN(C(c2ccccc2)c2ccccc2)CC1 [Oxatomide]	–	–	1	High (High: HIA value ≥0.7)	–
CC[N+]1(C)[C@@H]2CC(OC(=O)[C@H](CO)c3ccccc3)C[C@H]1[C@@H]1O[C@@H]12 (stereo partly drawn) [Oxitropium]	–	–	0.16	Low (Low: HIA value < 0.7)	–
CC(C)NCC(O)COc1ccc(CCNC(=O)NC(C)C)cc1 (stereo not drawn) [Pafenolol]	–	–	0.29	Low (Low: HIA value < 0.7)	–
COc1ccnc(C[S+]([O-])c2nc3ccc(OC(F)F)cc3[nH]2)c1OC (stereo not drawn) [Pantoprazole]	–	–	0.77	High (High: HIA value ≥0.7)	–

SMILES	IC50 (PIM1) [µM]	IC50 (PTGS1) [µM]	HIA(Human Intestinal Absorption) [1, 3]	Class(High: HIA value ≥0.7; Low: HIA value < 0.7) [2]	HIA(Human Intestinal Absorption) ([1]; in vivo)
C[N+]1(CCCCC[N+]2(C)CCCC2)CCCC1 [Pentolinium]	–	–	0.05	Low (Low: HIA value < 0.7)	–
CCc1[nH]c(=O)[nH]c1C(=O)c1ccncc1 [Piroximone]	–	–	0.8	High (High: HIA value ≥0.7)	–
CCCOC(C(=O)OC1CCN(C)CC1)(c1ccccc1)c1ccccc1 [Propiverine]	–	–	0.84	High (High: HIA value ≥0.7)	–
CCCc1cc(C(N)=S)ccn1 [Protionamide]	–	–	0.9	High (High: HIA value ≥0.7)	–
Oc1ccc(C(O)C2CCCCN2)cc1O (stereo not drawn) [Rimiterol]	–	–	0.48	Low (Low: HIA value < 0.7)	–
O=P(O)(O)C(O)(Cc1cccnc1)P(=O)(O)O [Risedronic_acid]	–	–	0.01	Low (Low: HIA value < 0.7)	–
CCCN(CCC)CCc1cccc2c1CC(=O)N2 [Ropinirole]	–	–	0.98	High (High: HIA value ≥0.7)	–
C[C@@H]1O[C@@H](OC[C@H]2O[C@@H](Oc3c(-c4ccc(O)c(O)c4)oc4cc(O)cc(O)c4c3=O)[C@H](O)[C@@H](O)[C@@H]2O)[C@H](O)[C@H](O)[C@H]1O [Rutin]	57 ± 5.8	–	–	–	–
Cn1nnc2c(C(N)=O)ncn2c1=O [Temozolomide]	–	–	1	High (High: HIA value ≥0.7)	–
NC(=O)N1C(=O)/C(=C(\O)c2cccs2)c2cc(Cl)ccc21 [Tenidap]	–	–	–	High (High: HIA value ≥0.7)	0.89
CCO[C@@H](Cc1ccc(OCCc2ccc(OS(C)(=O)=O)cc2)cc1)C(=O)O [Tesaglitazar]	–	–	1	High (High: HIA value ≥0.7)	–
CSc1ccc2ncn(/C=C/C(=O)O)c(=O)c2c1 [Tiacrilast]	–	–	0.99	High (High: HIA value ≥0.7)	–
COc1cc(C)c([S+](C)[O-])cc1OC (stereo not drawn) [Tolmesoxide]	–	–	0.98	High (High: HIA value ≥0.7)	–
COc1ccc2c(C(=S)N(C)CC(=O)O)cccc2c1C(F)(F)F [Tolrestat]	–	–	0.66	Low (Low: HIA value < 0.7)	–
O=c1n(CCCN2CCN(c3cccc(Cl)c3)CC2)nc2ccccn12 [Trazodone]	–	–	1	High (High: HIA value ≥0.7)	–
CC1(C)O[C@@H]2C[C@H]3[C@@H]4CCC5=CC(=O)C=C[C@]5(C)[C@@]4(F)[C@@H](O)C[C@]3(C)[C@]2(C(=O)CO)O1 [Triamcinolone_acetonide]	–	–	0.9	High (High: HIA value ≥0.7)	–
CN1[C@@H]2CC[C@H]1C[C@@H](OC(=O)c1c[nH]c3ccccc13)C2 [Tropisetron]	–	–	0.95	High (High: HIA value ≥0.7)	–
CC(C(=O)O)c1ccc(C2CCCC(=NO)C2)cc1 (stereo not drawn) [Ximoprofen]	–	–	0.98	High (High: HIA value ≥0.7)	–
